{"source": "paper PMC8626637", "about": "“Successful Prediction of Human Fetal Exposure to P-Glycoprotein Substrate Drugs Using the Proteomics-Informed Relative Expression Factor Approach and PBPK Modeling and Simulation” (Drug Metabolism and Disposition, 2021)", "key": {"[1]": {"test_system": "11 β-hydroxysteroid dehydrogenase-2", "design": "method as in Blanford and Murphy, 1977; Murphy et al., 2007", "details": "ref Blanford and Murphy, 1977, Murphy et al., 2007; cited from earlier work"}, "[2]": {"details": "ref DrugBank database; cited from earlier work"}, "placental P-gp": {"test_system": "placental P-gp", "assay": "m-f PBPK prediction of maternal-fetal pharmacokinetics at gestational week 20 (GW20)", "design": "species or system human", "description": "GW20 was chosen since this is the earliest gestational age at which all the fetal physiologic parameters (e.g., organ volumes, partition coefficients, blood flows) are available."}, "P-gp [3]": {"molecular_target": "T1, P-gp (Homo sapiens, UniProt P08183)", "T1 sequence (P08183 whole entry)": "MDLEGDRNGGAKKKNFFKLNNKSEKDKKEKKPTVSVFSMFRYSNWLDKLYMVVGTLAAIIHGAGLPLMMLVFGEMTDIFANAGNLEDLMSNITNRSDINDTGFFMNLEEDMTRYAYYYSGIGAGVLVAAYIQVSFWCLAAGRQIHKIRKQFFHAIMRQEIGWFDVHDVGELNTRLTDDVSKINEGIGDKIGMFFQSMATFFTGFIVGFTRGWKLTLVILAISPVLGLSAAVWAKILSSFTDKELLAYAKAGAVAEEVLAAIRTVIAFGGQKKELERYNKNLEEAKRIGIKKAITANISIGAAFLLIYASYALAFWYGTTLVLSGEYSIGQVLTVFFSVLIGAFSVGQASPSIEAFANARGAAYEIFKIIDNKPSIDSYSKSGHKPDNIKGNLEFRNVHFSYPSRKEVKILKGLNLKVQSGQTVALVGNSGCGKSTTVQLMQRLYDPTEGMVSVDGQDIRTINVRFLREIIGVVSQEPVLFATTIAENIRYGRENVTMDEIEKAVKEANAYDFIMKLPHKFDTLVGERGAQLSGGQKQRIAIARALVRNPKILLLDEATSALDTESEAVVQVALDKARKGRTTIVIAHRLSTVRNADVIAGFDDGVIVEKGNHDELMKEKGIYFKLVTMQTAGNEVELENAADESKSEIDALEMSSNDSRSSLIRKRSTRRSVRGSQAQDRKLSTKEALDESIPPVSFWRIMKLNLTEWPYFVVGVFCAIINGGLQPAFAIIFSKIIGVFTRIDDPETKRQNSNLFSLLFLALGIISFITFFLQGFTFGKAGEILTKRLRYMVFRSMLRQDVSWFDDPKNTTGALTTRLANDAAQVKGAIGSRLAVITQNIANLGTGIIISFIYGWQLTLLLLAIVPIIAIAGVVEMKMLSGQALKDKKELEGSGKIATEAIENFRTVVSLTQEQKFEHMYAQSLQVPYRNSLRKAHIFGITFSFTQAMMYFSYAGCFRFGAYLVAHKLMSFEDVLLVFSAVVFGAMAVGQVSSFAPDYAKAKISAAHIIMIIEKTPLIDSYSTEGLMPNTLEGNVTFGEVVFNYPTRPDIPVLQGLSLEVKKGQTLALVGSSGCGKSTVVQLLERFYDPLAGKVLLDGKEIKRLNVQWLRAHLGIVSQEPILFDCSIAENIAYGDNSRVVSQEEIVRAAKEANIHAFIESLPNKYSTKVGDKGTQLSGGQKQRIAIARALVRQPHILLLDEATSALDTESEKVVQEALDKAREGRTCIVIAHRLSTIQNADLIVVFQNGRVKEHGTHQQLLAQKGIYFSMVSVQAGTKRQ", "assay": "in vitro", "details": "MDCK-MDR1, pH 7.4"}, "[4]": {"assay": "Estimation of in vivo transplacental passive diffusion clearance by scaling midazolam CLint,PD,placenta with Papp ratio", "design": "species or system human", "details": "at term, scaled from midazolam by Papp ratio"}, "P-gp [5]": {"molecular_target": "T1, P-gp", "details": "for ERP-gp ERTRQ(−) − ERTRQ(+): P-gp-mediated efflux ratio"}, "[6]": {"assay": "Observed or PopPK-model (published) maternal and fetal UV plasma pharmacokinetics in pregnant women", "details": "coadministered with RTV"}, "MDCKII or Caco-2 cells": {"test_system": "MDCKII or Caco-2 cells", "details": "determined in MDCKII or Caco-2 cells; ref Zhang and Unadkat, 2017; cited from earlier work"}, "[7]": {"details": "in vivo, at term; ref Zhang and Unadkat, 2017; cited from earlier work"}}, "note": "Values joined by “and” are separate entries in the source; they are usually repeats but may differ in a detail not shown here. Equal entries are not always repeated. Where two headings read alike, the source gives them in different places."}
{"smiles": "C[C@@H]1C[C@H]2[C@@H]3CCC4=CC(=O)C=C[C@]4(C)[C@@]3(F)[C@@H](O)C[C@]2(C)[C@@]1(O)C(=O)CO", "note": "[DEX, dexamethasone]", "values": [{"measurement": "metabolized over 6 hours in vitro in placental microsomes", "setting": "[1]", "value": "10%–15%"}]}
{"smiles": "Cc1cccc(C)c1OCC(=O)N[C@@H](Cc1ccccc1)[C@@H](O)C[C@H](Cc1ccccc1)NC(=O)[C@H](C(C)C)N1CCCNC1=O", "note": "[LPV, lopinavir]", "values": [{"measurement": "solubility", "setting": "[2]", "value": 3, "unit": "µM"}, {"measurement": "CLint,P-gp,placenta", "setting": "placental P-gp; GW20, adjusted for total placental P-gp abundance", "value": 617, "unit": "L/h"}, {"measurement": "CLint,PD,placenta", "setting": "placental P-gp; GW20, from term value adjusted for placental surface area", "value": 49.5, "unit": "L/h"}, {"measurement": "CLint,P-gp,placenta at GW20, lower than the corresponding value at GW38", "setting": "placental P-gp; GW20 versus GW38", "value": 40, "unit": "%"}, {"measurement": "fetal Kp,uu at GW20 as percent of that at GW38", "setting": "placental P-gp; m-f PBPK predicted", "value": 64, "unit": "%"}, {"measurement": "fetal UV plasma AUC0-12 at GW20 as percent of that at GW38", "setting": "placental P-gp; m-f PBPK predicted", "value": 38, "unit": "%"}, {"measurement": "fetal plasma Cmax at GW20 as percent of that at GW38", "setting": "placental P-gp; m-f PBPK predicted", "value": 41, "unit": "%"}, {"measurement": "Papp", "setting": "P-gp [3]", "value": 12.5, "unit": "×10⁻⁶ cm/s"}, {"measurement": "CLint,PD,placenta", "setting": "[4]", "value": 127, "unit": "L/h"}, {"measurement": "ERP-gp ERTRQ(−) − ERTRQ(+)", "setting": "P-gp [5]; Mean ± S.D. of 4 experiments", "value": "83.1 ± 10.1 and 83.1 ± 10.05"}, {"measurement": "ERP-gp ERTRQ(−) − ERTRQ(+)", "setting": "P-gp [5]; individual experiments (Exp no. 1-4)", "value": "94.35 and 88.78 and 73.99 and 75.27"}, {"measurement": "ERTRQ(−)", "setting": "P-gp [5]; efflux ratio without tariquidar, individual experiments (Exp no. 1-4, each in triplicate), 2 µM DEX, BET, DRV, 1 µM LPV", "value": "95.37 and 90.07 and 75.63 and 76.57"}, {"measurement": "observed increase in maternal clearance in pregnancy", "setting": "[6]", "value": 1.4, "unit": "fold"}]}
{"smiles": "C=C[C@H]1C[N@@]2CC[C@H]1C[C@@H]2[C@@H](O)c1ccnc2ccc(OC)cc12", "note": "[QND, Quinidine]", "values": [{"measurement": "efflux ratio at 3 µM", "setting": "P-gp [3]", "value": "11.1 ± 2.5"}]}
{"smiles": "Cc1ncc2n1-c1ccc(Cl)cc1C(c1ccccc1F)=NC2", "note": "[MDZ, midazolam]", "values": [{"measurement": "Papp", "setting": "MDCKII or Caco-2 cells", "value": 49, "unit": "×10⁻⁶ cm/s"}, {"measurement": "CLint,PD,placenta", "setting": "[7]", "value": 500, "unit": "L/h"}]}
{"smiles": "C[C@H]1C[C@H]2[C@@H]3CCC4=CC(=O)C=C[C@]4(C)[C@@]3(F)[C@@H](O)C[C@]2(C)[C@@]1(O)C(=O)CO", "note": "[BET, betamethasone]", "values": [{"measurement": "metabolized over 6 hours in vitro in placental microsomes", "setting": "[1]", "value": "10%–15%"}]}
{"smiles": "CC(C)CN(C[C@@H](O)[C@H](Cc1ccccc1)NC(=O)O[C@H]1CO[C@H]2OCC[C@H]21)S(=O)(=O)c1ccc(N)cc1", "note": "[DRV, darunavir]", "values": [{"measurement": "solubility", "setting": "[2]", "value": 16, "unit": "µM"}]}
